In test [1] the target is T1, PAR2 (HT-29 cells, SLIGKV activation) (Homo sapiens, UniProt P55085).
T1 construct: host or cells: HT-29 cells
T1 sequence (P55085 26-397): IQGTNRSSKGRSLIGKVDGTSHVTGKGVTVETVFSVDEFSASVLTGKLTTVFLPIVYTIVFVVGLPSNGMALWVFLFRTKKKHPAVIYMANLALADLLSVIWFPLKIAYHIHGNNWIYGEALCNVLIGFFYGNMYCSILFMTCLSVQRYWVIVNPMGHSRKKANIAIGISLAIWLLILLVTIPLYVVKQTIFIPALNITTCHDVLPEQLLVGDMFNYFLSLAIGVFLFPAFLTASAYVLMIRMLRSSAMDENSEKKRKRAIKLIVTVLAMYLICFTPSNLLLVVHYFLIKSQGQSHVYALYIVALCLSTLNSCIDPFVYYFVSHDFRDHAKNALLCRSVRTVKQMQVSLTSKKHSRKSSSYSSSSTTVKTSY
Put plainly: Ca FLIPR TETRA assay, ANTAGONIST mode, stimulation with 8 μM SLIGKV. The class given is cell-based. The following applies: HT-29 cells, antagonist mode, stimulation with 8 μM SLIGKV. A digest of the protocol:
(§1)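 HT-29 cells grown overnight in 1% FBS McCoy's medium were loaded with calcium 5 dye (45 min 37 °C, 15 min r.t.). Compounds were added and Ca2+ read for direct activation, then after 30 min at r.t. cells were stimulated with 8 μM SLIGKV, 1 U/mL thrombin, 3.1 U/mL trypsin or 0.6 μM UTP (final).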

In test [2] the target is T2, PAR2 (HT-29 cells, trypsin activation) (Homo sapiens, UniProt P55085).
T2 construct: host or cells: HT-29 cells
T2 sequence (P55085 26-397): T1 sequence (P55085 26-397)
Put plainly: Ca FLIPR TETRA assay, ANTAGONIST mode, stimulation with 3.1 U/mL trypsin. In kind it is cell-based. The following applies: HT-29 cells, antagonist mode, stimulation with 3.1 U/mL trypsin. The procedure, abridged:
as §1

For test [3], the system named is Thrombin-stimulated Ca2+ response in HT-29 cells. Put plainly: Ca FLIPR TETRA assay, ANTAGONIST mode, stimulation with 1 U/mL Thrombin. In kind it is cell-based, human. The following applies: Homo sapiens; HT-29 cells, antagonist mode, stimulation with 1 U/mL Thrombin. The procedure, abridged:
as §1

Test [4] relates to UTP-stimulated Ca2+ response in HT-29 cells. Put plainly: Ca FLIPR TETRA assay, ANTAGONIST mode, stimulation with 0.6 μM UTP. The following applies: Homo sapiens; HT-29 cells, antagonist mode, stimulation with 0.6 μM UTP. In kind it is cell-based, human. The procedure, abridged:
as §1

This note sets out measurements from US20190119282A1, “IMIDAZOPYRIDAZINES USEFUL AS INHIBITORS OF THE PAR-2 SIGNALING PATHWAY” (Vertex Pharmaceuticals Incorporated, priority 2013, published 2019).

`CC(C)c1cc(-c2ccc(F)c(Cl)c2)nn2cc(C(=O)N3CCN(C(=O)[C@H]4C[C@](O)(C(F)(F)F)C4)CC3(C)C)nc12` [Compound I-500]: the 50% inhibitory concentration (IC50) (in general, the concentration that gives 50% inhibition) in test [1] is 0.3 nM; in test [2], 0.4 nM; in test [3] it was more than 1000 nM; in test [4], more than 1000 nM.
`CC(C)c1cc(-c2ccc(F)c(Cl)c2)nn2cc(C(=O)N3CCN(C(=O)[C@H]4C[C@H](C(=O)O)C4)CC3(C)C)nc12` [Compound I-501]: the IC50 is 51 nM in test [1], 59.5 nM in test [2], more than 1000 nM in test [3] and more than 1000 nM in test [4].
Take `CC(C)c1cc(-c2ccc(F)c(Cl)c2)nn2cc(C(=O)N3CCN(C(=O)[C@H]4C[C@@H](C(=O)O)C4)CC3(C)C)nc12` [Compound I-502]: the IC50 in test [1] is 21 nM; in test [2], 20 nM; in test [3], more than 1000 nM; in test [4] it was more than 1000 nM.
For `COC(=O)CN1CCN(C(=O)c2cn3nc(-c4ccc(F)cc4)cc(C(C)(C)C)c3n2)C(C)(C)C1=O` [Compound I-503], the IC50 in test [1] is 3.9 nM; in test [2], 4.6 nM; in test [3] it was more than 1000 nM; in test [4] it was more than 1000 nM.
With `Cc1nc(C(=O)N2CCN(C(=O)c3cn4nc(-c5ccc(F)c(Br)c5)cc(C(C)(C)C)c4n3)C(C)(C)C2)n[nH]1` [Compound I-504], the IC50 was 1.2 nM in test [1], 1.5 nM in test [2], more than 1000 nM in test [3] and 460 nM in test [4].
Taken in the same sequence, the figures for `CC(C)c1cc(-c2ccc(F)c(Cl)c2)nn2cc(C(=O)N3CCN(C(=O)[C@H]4C[C@H](O)C4)CC3(C)C)nc12` [Compound I-505] were 12 nM, 23 nM, more than 1000 nM and more than 1000 nM.
With `CC(C)(C)c1cc(C2CCC(F)(F)CC2)nn2cc(C(=O)N3CCN(C(=O)[C@H]4CC[C@H](C(=O)O)CC4)CC3(C)C)nc12` [Compound I-506], the IC50 in test [1] was 107 nM; in test [2], 163 nM; in test [3], more than 1000 nM; in test [4], more than 1000 nM.
`Cc1cc(-c2cc(C(C)C)c3nc(C(=O)N4CCNC(=O)C4(C)C)cn3n2)ccc1Cl` [Compound I-507]: the IC50 in test [1] is 3.1 nM; in test [2], 4.9 nM; in test [3], more than 1000 nM; in test [4] it was more than 1000 nM.
As for `Cc1ccc(-c2cc(C(C)C)c3nc(C(=O)N4CCNC(=O)C4(C)C)cn3n2)cc1Cl` [Compound I-508], the half-maximal inhibitory concentration (IC50) is 4.7 nM in test [1], 4.1 nM in test [2], more than 1000 nM in test [3] and more than 1000 nM in test [4].
Take `COC(=O)CC1(C)C(=O)NCCN1C(=O)c1cn2nc(-c3ccc(F)cc3)cc(C(C)(C)C)c2n1` (centres unmarked) [Compound I-509]: the IC50 was 82.5 nM in test [1], 170 nM in test [2], more than 1000 nM in test [3] and more than 1000 nM in test [4].
For `CC(C)(C)c1cc(-c2ccc(F)cc2)nn2cc(C(=O)N3CCOC(=O)C3(C)C)nc12` [Compound I-510], the IC50 in test [1] is 6.8 nM; in test [2] it was 8.8 nM; in test [3], more than 1000 nM; in test [4] it was more than 1000 nM.
For the compound `CC(C)c1cc(-c2ccc(F)cc2)nn2cc(C(=O)N3CCOC(=O)C3(C)C)nc12` [Compound I-511], the IC50 in test [1] was 23 nM; in test [2], 87 nM; in test [3] it was more than 1000 nM; in test [4], more than 1000 nM.
Take `CC(=O)N1CCN(C(=O)c2cn3nc(-c4ccc(F)cc4)cc(C(C)C)c3n2)C(C)(C)C1` [Compound I-512]: the IC50 in test [1] was 23.5 nM; in test [2] it was 53 nM; in test [3], more than 1000 nM; in test [4] it was more than 1000 nM.
Turning to `CC(=O)N1CCN(C(=O)c2cn3nc(-c4ccc(F)cc4)cc(C(C)(C)C)c3n2)C(C)(C)C1` [Compound I-513], the IC50 is 1.8 nM in test [1], 3 nM in test [2], more than 1000 nM in test [3] and more than 1000 nM in test [4].
For the compound `CC1(C)C(=O)OCCN1C(=O)c1cn2nc(-c3ccc(F)cc3)cc(C(F)(F)F)c2n1` [Compound I-514], the IC50 in test [1] was 160 nM; in test [2], 315 nM; in test [3] it was more than 1000 nM; in test [4], more than 1000 nM.
In the case of `CC(C)(C)c1cc(C2CCC(F)(F)CC2)nn2cc(C(=O)N3CCN(C(=O)[C@H]4C[C@H](C(=O)O)C4)CC3(C)C)nc12` [Compound I-515], the IC50 in test [1] is 62.5 nM; in test [2], 110 nM; in test [3] it was more than 1000 nM; in test [4] it was more than 1000 nM.
Take `CC(C)(C)c1cc(C2CCC(F)(F)CC2)nn2cc(C(=O)N3CCN(C(=O)[C@H]4C[C@@H](C(=O)O)C4)CC3(C)C)nc12` [Compound I-516]: the IC50 in test [1] was 39.5 nM; in test [2], 92 nM; in test [3] it was more than 1000 nM; in test [4], more than 1000 nM.
Take `CC(C)(C)c1cc(-c2ccc(Br)cc2)nn2cc(C(=O)N3CCNC(=O)C3(C)C)nc12` [Compound I-517]: the IC50 in test [1] was 2.7 nM; in test [2] it was 2.1 nM; in test [3] it was more than 1000 nM; in test [4], more than 1000 nM.
In the case of `CC(C)(C)c1cc(-c2ccc(F)cc2)nn2cc(C(=O)N3CCN(CC(=O)O)C(=O)C3(C)C)nc12` [Compound I-518], the IC50 in test [1] is 57 nM; in test [2], 68.5 nM; in test [3], more than 1000 nM; in test [4], more than 1000 nM.
Regarding `Cc1n[nH]c(C(=O)N2CCN(C(=O)c3cn4nc(-c5ccc(Br)cc5)cc(C(C)(C)C)c4n3)C(C)(C)C2)n1` [Compound I-519], the IC50 in test [1] was 0.4 nM; in test [2], 0.4 nM; in test [3] it was more than 1000 nM; in test [4], more than 1000 nM.
Turning to `COC(=O)[C@H]1CC[C@@H](C(=O)N2CCN(C(=O)c3cn4nc(-c5ccc(Br)cc5)cc(C(C)(C)C)c4n3)C(C)(C)C2)CC1` [Compound I-520], the IC50 in test [1] was 1 nM; in test [2] it was 1 nM; in test [3] it was more than 1000 nM; in test [4], more than 1000 nM.
Take `CC(C)c1cc(-c2ccc(Cl)cc2)nn2cc(C(=O)N3CCNCC3(C)C)nc12` [Compound I-521]: the IC50 in test [1] was 625 nM; in test [2] it was 480 nM; in test [3], more than 1000 nM; in test [4], more than 1000 nM.
Take `CC1(C)C(=O)NCCN1C(=O)c1cn2nc(-c3ccc(F)cc3)cc(-c3ccc(F)cc3)c2n1` [Compound I-523]: the IC50 in test [1] is 12 nM; in test [2], 9.6 nM; in test [3], more than 1000 nM; in test [4] it was more than 1000 nM.
Regarding `CC1(C)CN(C(=O)[C@H]2CC[C@@H](C(=O)O)CC2)CCN1C(=O)c1cn2nc(-c3ccc(F)cc3)cc(-c3ccc(F)cc3)c2n1` [Compound I-524], the concentration for half-maximal inhibition (IC50) in test [1] was 1.4 nM; in test [2], 1.7 nM; in test [3], more than 1000 nM; in test [4] it was more than 1000 nM.
Consider `COC(=O)C1(C)CCC(C(=O)N2CCN(C(=O)c3cn4nc(-c5ccc(F)cc5)cc(C(C)(C)C)c4n3)C(C)(C)C2)CC1` (centres unmarked) [Compound I-526], for which the IC50 in test [1] is 0.6 nM; in test [2], 0.8 nM; in test [3], more than 1000 nM; in test [4] it was more than 1000 nM.
Consider `COC(=O)C1(C(=O)N2CCN(C(=O)c3cn4nc(-c5ccc(F)cc5)cc(C(C)(C)C)c4n3)C(C)(C)C2)CC1` [Compound I-527], for which the IC50 is 4.3 nM in test [1], 3 nM in test [2], more than 1000 nM in test [3] and more than 1000 nM in test [4].
